Experimental data taken from patent US9247759B2, “Identification of human T2R receptors that respond to bitter compounds that elicit the bitter taste in compositions, and the use thereof in assays to identify compounds that inhibit (block) bitter taste in compositions and use thereof” (SENOMYX, INC., priority 2007, dated 2016).
pIC50: −log10 of the molar value. Read-outs that look alike come from different tables or passages of the source.

Experiments:
hT2R61 = hT2R61 (Homo sapiens (Human), UniProt P59537); assay: hT2R panel inhibition, transient HEK293 G16g44, agonist Aristolochic Acid 25 nM; assay type: cell-based; conditions: HEK293, compound at 25 μM; receptor activated to EC80 with the corresponding agonist; read-out: screening result against bitter receptor 61
How it was run: (§1)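 The test compound's selectivity was profiled by challenging each transiently expressed human T2R with its activating bitter ligand at an EC80 concentration, inhibition being the reduction of receptor signalling it produced.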

hT2R71 = hT2R71 (Homo sapiens (Human), UniProt P59536); assay: hT2R panel inhibition, transient HEK293 G16g44, agonist Picric Acid 10 μM; assay type: cell-based; conditions: HEK293, compound at 25 μM; receptor activated to EC80 with the corresponding agonist; read-out: screening result against bitter receptor 71
How it was run: as §1

hT2R75 = hT2R75 (Homo sapiens (Human), UniProt P59540); assay: hT2R panel inhibition, transient HEK293 G16g44, agonist Strychnine 1 μM; assay type: cell-based; conditions: HEK293, read-out: screening result against bitter receptor 75, compound at 25 μM; receptor activated to EC80 with the corresponding agonist
hT2R64 = hT2R64 (Homo sapiens (Human), UniProt P59538); assay: hT2R panel inhibition, transient HEK293 G16g44, agonist Aristolochic Acid 1 μM; assay type: cell-based; conditions: HEK293, compound at 25 μM; receptor activated to EC80 with the corresponding agonist; read-out: screening result against bitter receptor 64
How it was run: as §1

hT2R4 = hT2R4 (Homo sapiens (Human), UniProt Q9NYW5); assay: hT2R panel inhibition, transient HEK293 G16g44, agonist Chloroquine pH6.5 5 mM; assay type: cell-based; conditions: HEK293, compound at 25 μM; receptor activated to EC80 with the corresponding agonist; class symbols; read-out: screening result against bitter receptor 4
Method: Specifically, in order to evaluate the inhibitory selectivity of the Compound C compound, this compound was tested against 22 human T2Rs which were deorphaned by Senomyx. These receptors and the bitter ligands that activate these human T2Rs are reported in earlier patent applications which are incorporated by reference herein. These 22 human T2Rs are hT2R1, 3, 4, 5, 7, 8, 9, 10, 13, 14, 16, 44, 51, 54, 55, 61, 63, 64, 65, 67, 71 and 75. The amino acid and nucleic acid sequences of all of these T2Rs may be found in these earlier patent applications. These human T2Rs were each individually transiently transfected into HEK293 cells that stably express the promiscuous G protein G16g44 and functional assays were effected using these receptors as disclosed in these same patent applications. […] The ligands were used at EC80 concentration levels. The list of bitter ligands utilized and the tested ligand concentrations are contained in Table 5 of this example.
Relating to the foregoing, FIG. 5 contains experimental results wherein Compound C was tested with different agonist compounds. The inhibition activity is represented by the reduction of receptor activity in the presence of Compound C. […] These 13 hT2Rs are hT2R3, 7, 10, 14, 16, 44, 51, 55, 61, 63, 64, 65, and 71.

hT2R16 = hT2R16 (Homo sapiens (Human), UniProt Q9NYV7); assay: hT2R panel inhibition, transient HEK293 G16g44, agonist Salicin 1 mM; assay type: cell-based; conditions: HEK293, compound at 25 μM; receptor activated to EC80 with the corresponding agonist; read-out: screening result against bitter receptor 16
How it was run: as §1

hT2R3 = hT2R3 (Homo sapiens (Human), UniProt Q9NYW6); assay: hT2R panel inhibition, transient HEK293 G16g44, agonist Chloroquine pH6.5 50 μM; assay type: cell-based; conditions: HEK293, compound at 25 μM; receptor activated to EC80 with the corresponding agonist; read-out: screening result against bitter receptor 3
How it was run: as §1

hT2R67 = assay: hT2R panel inhibition, transient HEK293 G16g44, agonist Andrographolide 5 μM; assay type: cell-based, human; conditions: compound at 25 μM; receptor activated to EC80 with the corresponding agonist
How it was run: as §1

hT2R54 = assay: hT2R panel inhibition, transient HEK293 G16g44, agonist Ranitidine 5 mM; assay type: cell-based, human; conditions: compound at 25 μM; receptor activated to EC80 with the corresponding agonist
How it was run: as §1

hT2R10 = hT2R10 (Homo sapiens (Human), UniProt Q9NYW0); assay: hT2R panel inhibition, transient HEK293 G16g44, agonist Strychnine 50 μM; assay type: cell-based; conditions: HEK293, read-out: screening result against bitter receptor 10, compound at 25 μM; receptor activated to EC80 with the corresponding agonist
hT2R5 = hT2R5 (Homo sapiens (Human), UniProt Q9NYW4); assay: hT2R panel inhibition, transient HEK293 G16g44, agonist Picoline 10 mM; assay type: cell-based; conditions: HEK293, compound at 25 μM; receptor activated to EC80 with the corresponding agonist; read-out: screening result against bitter receptor 5
How it was run: as §1

hT2R14 [1] = target: T1, hT2R14 (Homo sapiens (Human), UniProt Q9NYV8); assay: hT2R14 antagonist high-throughput FLIPR assay, stable cell line with G16g44, agonist aristolochic acid; assay type: cell-based
How it was run: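 HEK293 cells stably expressing hT2R14 with chimeric G16g44 were stimulated with aristolochic acid (3 μM), giving 70-80% of maximal receptor activity. Test compounds were added together with the agonist, and antagonism was read as fluorescent calcium signal on FLIPR.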

hT2R65 = assay: hT2R panel inhibition, transient HEK293 G16g44, agonist Oleuropein 1 mM; assay type: cell-based, human; conditions: compound at 25 μM; receptor activated to EC80 with the corresponding agonist
How it was run: as §1

hT2R7 = hT2R7 (Homo sapiens (Human), UniProt Q9NYW3); assay: hT2R panel inhibition, transient HEK293 G16g44, agonist Chloroquine pH6.5 10 mM; assay type: cell-based; conditions: HEK293, compound at 25 μM; receptor activated to EC80 with the corresponding agonist; read-out: screening result against bitter receptor 7
How it was run: as §1

hT2R14 [2] = target: T1, hT2R14; assay: hT2R panel inhibition, transient HEK293 G16g44, agonist Aristolochic Acid 2 μM; assay type: cell-based; conditions: HEK293, compound at 25 μM; receptor activated to EC80 with the corresponding agonist; read-out: screening result against bitter receptor 14
How it was run: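 Each hT2R was transiently transfected into HEK293 cells stably expressing G16g44 and assayed functionally for inhibition of agonist response. Agonists were applied at EC80: andrographolide at 0.5 mM for hT2R8 and aristolochic acid at 2 μM for hT2R14.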

hT2R44 = assay: hT2R panel inhibition, transient HEK293 G16g44, agonist Denatonium 0.5 μM; assay type: cell-based, human; conditions: compound at 25 μM; receptor activated to EC80 with the corresponding agonist
How it was run: as §1

hT2R63 = assay: hT2R panel inhibition, transient HEK293 G16g44, agonist Caffeine 1 mM or Andrographolide 100 μM; assay type: cell-based, human; conditions: compound at 25 μM; receptor activated to EC80 with the corresponding agonist
How it was run: as §1

hT2R55 = assay: hT2R panel inhibition, transient HEK293 G16g44, agonist Cinchonine 150 μM; assay type: cell-based, human; conditions: compound at 25 μM; receptor activated to EC80 with the corresponding agonist
How it was run: as §1

hT2R51 = hT2R51 (Homo sapiens (Human), UniProt P59533); assay: hT2R panel inhibition, transient HEK293 G16g44, agonist Prop 2.5 μM; assay type: cell-based; conditions: HEK293, compound at 25 μM; receptor activated to EC80 with the corresponding agonist; read-out: screening result against bitter receptor 51
How it was run: as §1

[3] = read-out: IC50 on hT2R14 bitter receptor

Sequence of hT2R64 (P59538 whole entry): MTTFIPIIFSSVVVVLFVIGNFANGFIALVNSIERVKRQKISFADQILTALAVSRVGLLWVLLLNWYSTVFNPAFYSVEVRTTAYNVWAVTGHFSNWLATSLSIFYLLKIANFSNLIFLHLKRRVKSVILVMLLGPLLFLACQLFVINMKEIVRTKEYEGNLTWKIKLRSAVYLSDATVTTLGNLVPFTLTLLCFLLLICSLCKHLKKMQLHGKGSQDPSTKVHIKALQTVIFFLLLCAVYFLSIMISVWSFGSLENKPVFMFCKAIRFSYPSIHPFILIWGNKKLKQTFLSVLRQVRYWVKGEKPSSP
Sequence of hT2R10 (Q9NYW0 whole entry): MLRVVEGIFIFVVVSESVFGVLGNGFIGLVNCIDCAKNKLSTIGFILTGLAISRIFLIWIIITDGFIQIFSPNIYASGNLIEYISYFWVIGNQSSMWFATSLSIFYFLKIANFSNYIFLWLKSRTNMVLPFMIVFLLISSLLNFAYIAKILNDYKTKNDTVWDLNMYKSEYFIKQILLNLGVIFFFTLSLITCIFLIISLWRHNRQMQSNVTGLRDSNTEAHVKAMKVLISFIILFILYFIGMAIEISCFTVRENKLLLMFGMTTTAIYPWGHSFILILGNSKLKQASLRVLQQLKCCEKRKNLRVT
Sequence of hT2R75 (P59540 whole entry): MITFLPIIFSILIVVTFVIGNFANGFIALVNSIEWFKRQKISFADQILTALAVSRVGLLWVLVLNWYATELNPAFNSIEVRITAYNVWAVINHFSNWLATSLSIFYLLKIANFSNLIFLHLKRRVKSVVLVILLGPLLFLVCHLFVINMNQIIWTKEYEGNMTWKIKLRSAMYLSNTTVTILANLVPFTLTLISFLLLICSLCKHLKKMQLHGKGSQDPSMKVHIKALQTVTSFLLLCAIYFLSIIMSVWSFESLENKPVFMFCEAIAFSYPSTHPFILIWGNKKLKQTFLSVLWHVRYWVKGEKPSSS
Sequence of hT2R4 (Q9NYW5 whole entry): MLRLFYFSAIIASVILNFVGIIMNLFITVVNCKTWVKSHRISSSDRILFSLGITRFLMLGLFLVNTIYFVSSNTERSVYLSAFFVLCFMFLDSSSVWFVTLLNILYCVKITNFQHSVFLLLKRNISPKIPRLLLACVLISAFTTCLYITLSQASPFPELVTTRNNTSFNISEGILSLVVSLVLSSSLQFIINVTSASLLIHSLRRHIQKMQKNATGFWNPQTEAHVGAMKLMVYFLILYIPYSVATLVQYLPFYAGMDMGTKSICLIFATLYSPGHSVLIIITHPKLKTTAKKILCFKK
T1 sequence (Q9NYV8 whole entry): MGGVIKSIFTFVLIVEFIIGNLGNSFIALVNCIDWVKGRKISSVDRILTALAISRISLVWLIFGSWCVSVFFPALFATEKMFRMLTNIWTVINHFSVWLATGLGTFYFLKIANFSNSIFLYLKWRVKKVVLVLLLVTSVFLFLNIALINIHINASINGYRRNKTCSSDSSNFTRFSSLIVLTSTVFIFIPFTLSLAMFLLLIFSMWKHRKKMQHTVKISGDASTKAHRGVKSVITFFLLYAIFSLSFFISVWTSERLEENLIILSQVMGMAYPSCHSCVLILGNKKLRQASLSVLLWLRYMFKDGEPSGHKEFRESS
Sequence of hT2R71 (P59536 whole entry): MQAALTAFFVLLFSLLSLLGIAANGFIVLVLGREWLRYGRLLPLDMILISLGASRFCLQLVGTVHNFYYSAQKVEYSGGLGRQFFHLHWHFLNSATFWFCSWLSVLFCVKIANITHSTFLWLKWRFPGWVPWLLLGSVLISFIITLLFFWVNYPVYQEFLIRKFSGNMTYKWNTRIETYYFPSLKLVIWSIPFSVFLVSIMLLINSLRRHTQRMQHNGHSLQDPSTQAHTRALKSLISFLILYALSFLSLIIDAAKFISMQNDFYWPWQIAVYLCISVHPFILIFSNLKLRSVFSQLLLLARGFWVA
Sequence of hT2R3 (Q9NYW6 whole entry): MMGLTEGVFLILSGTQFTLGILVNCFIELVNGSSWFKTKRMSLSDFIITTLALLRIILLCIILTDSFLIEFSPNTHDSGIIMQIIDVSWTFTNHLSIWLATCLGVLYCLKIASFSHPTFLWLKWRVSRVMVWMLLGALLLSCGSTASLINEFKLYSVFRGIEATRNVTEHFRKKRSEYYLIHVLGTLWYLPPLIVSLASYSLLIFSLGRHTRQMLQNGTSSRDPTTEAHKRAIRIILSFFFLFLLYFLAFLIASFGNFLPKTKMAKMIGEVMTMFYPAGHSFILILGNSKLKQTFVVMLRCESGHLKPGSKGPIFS
Sequence of hT2R61 (P59537 whole entry): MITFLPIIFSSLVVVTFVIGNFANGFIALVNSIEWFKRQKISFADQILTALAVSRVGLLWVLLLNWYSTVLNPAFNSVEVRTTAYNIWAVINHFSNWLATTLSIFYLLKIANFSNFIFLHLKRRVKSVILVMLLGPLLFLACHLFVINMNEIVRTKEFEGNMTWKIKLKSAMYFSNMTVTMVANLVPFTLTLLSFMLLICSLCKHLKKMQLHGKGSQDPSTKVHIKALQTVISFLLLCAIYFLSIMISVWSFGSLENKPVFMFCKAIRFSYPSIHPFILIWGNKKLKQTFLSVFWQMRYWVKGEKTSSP
Sequence of hT2R7 (Q9NYW3 whole entry): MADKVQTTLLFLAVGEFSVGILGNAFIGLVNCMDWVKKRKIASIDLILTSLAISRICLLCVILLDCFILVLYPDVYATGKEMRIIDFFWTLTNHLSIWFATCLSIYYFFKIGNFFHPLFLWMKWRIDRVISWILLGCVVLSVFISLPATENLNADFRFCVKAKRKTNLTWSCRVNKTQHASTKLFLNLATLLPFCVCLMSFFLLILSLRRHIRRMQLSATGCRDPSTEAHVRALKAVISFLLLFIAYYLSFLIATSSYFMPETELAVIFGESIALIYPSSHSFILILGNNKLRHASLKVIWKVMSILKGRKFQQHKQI
Sequence of hT2R16 (Q9NYV7 whole entry): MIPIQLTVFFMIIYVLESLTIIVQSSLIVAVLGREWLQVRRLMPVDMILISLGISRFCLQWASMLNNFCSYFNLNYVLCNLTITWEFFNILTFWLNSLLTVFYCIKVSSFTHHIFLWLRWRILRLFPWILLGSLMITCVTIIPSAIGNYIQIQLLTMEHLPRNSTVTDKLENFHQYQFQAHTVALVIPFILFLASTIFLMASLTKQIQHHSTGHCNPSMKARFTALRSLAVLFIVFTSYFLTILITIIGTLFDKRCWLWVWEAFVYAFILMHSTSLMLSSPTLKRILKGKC
Sequence of hT2R51 (P59533 whole entry): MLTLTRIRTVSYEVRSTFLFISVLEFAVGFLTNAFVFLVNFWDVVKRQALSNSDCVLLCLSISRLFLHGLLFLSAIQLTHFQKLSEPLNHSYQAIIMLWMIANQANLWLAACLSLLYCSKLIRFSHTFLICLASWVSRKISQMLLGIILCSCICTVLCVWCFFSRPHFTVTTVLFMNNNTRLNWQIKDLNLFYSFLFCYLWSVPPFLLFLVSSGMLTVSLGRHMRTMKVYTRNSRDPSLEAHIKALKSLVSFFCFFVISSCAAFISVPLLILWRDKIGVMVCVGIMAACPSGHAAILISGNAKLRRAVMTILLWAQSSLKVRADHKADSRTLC
Sequence of hT2R5 (Q9NYW4 whole entry): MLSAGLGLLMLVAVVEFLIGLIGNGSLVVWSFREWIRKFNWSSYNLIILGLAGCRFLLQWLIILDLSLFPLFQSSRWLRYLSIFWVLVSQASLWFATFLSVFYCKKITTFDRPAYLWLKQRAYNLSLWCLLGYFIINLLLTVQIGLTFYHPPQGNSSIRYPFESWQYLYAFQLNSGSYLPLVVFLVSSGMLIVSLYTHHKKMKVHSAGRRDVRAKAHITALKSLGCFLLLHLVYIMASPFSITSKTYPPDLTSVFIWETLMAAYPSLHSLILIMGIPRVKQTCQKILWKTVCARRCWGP

Compound | inhibition at 25 µM (hT2R61) | inhibition at 25 µM (hT2R71) | inhibition at 25 µM (hT2R75) | inhibition at 25 µM (hT2R64) | inhibition at 25 µM (hT2R4) | inhibition at 25 µM (hT2R16) | inhibition at 25 µM (hT2R3) | screening result against bitter receptor 67 (hT2R67) | screening result against bitter receptor 54 (hT2R54) | inhibition at 25 µM (hT2R10) | inhibition at 25 µM (hT2R5) | pIC50 (hT2R14 [1]; Table C, read-out: hT2R14 IC50) | screening result against bitter receptor 65 (hT2R65) | inhibition at 25 µM (hT2R7) | inhibition at 25 µM (hT2R14 [2]) | screening result against bitter receptor 44 (hT2R44) | screening result against bitter receptor 63 (hT2R63) | screening result against bitter receptor 55 (hT2R55) | inhibition at 25 µM (hT2R51) | pIC50 (hT2R14 [1]; [3])
O=C(O)c1ccc(CN(Cc2ccc(F)cc2)S(=O)(=O)c2ccccc2)cc1 [Example 5-105, 4-((N-(4-fluorobenzyl)phenylsulfonamido)methyl)-benzoic acid] | > 80% | 60 to 80% | 20 to 40% | > 80% | 20 to 40% | 40 to 60% | 20 to 40% | ++ (40% to 60% inhibition = ++) | + (20% to 40% inhibition = +) | 20 to 40% | 20 to 40% | 6.03 | +++ (60% to 80% inhibition = +++) | 20 to 40% | > 80% | ++ (40% to 60% inhibition = ++) | ++ (40% to 60% inhibition = ++) | ++++ (80% or greater inhibition = ++++) | – | –
CCCOc1ccc(CN(Cc2ccco2)S(=O)(=O)c2ccc(C(=O)O)cc2)cc1 [Example 5-8, 4-(N-(4-propoxybenzyl)-N-(furan-2-ylmethyl)sulfamoyl)benzoic acid] | 60 to 80% | 40 to 60% | 20 to 40% | > 80% | 40 to 60% | 20 to 40% | 20 to 40% | – | + (20% to 40% inhibition = +) | 40 to 60% | – | – | ++ (40% to 60% inhibition = ++) | – | > 80% | ++ (40% to 60% inhibition = ++) | ++ (40% to 60% inhibition = ++) | ++++ (80% or greater inhibition = ++++) | 40 to 60% | 5.60
COc1ccccc1CN(Cc1ccco1)S(=O)(=O)c1ccc(C(=O)O)cc1 [Example 5-7, 4-(N-(furan-2-ylmethyl)-N-(2-methoxybenzyl)sulfamoyl)benzoic acid] | > 80% | 40 to 60% | 20 to 40% | > 80% | 20 to 40% | – | 20 to 40% | + (20% to 40% inhibition = +) | – | 20 to 40% | – | – | – | 20 to 40% | 40 to 60% | ++ (40% to 60% inhibition = ++) | ++++ (80% or greater inhibition = ++++) | ++++ (80% or greater inhibition = ++++) | – | 4.92
